In PMC10989020, “Preclinical characterization of a non-peptidomimetic HIV protease inhibitor with improved metabolic stability” (Antimicrobial Agents and Chemotherapy, 2024):
Like-named read-outs stand apart in the source and are kept apart here.

Assays:
[1] = molecular target: non-HIV aspartic proteases (BACE, cathepsin D, cathepsin E, pepsin, renin, and napsin); type: biochemical; details: IC50 considered equal to Ki(app)
Protocol: Except for the substrate used in the renin assay, all fluorogenic substrates and recombinant enzymes were purchased from R&D Systems and the assays were performed according to the manufacturer’s recommended procedure with minor changes. For the BACE1 assay, recombinant human BACE1 (50 nM) and test compound at various concentrations were added to a reaction buffer containing 20 mM sodium acetate at pH 4.8 with 0.06% Triton X-100 and 1% DMSO. After a 15-minute pre-incubation, the enzymatic reaction was initiated by the addition of fluorogenic substrate to a final concentration of 1 µM and a total volume of 100 µL. For the Cat D assay, after a 15-minute pre-incubation, the enzymatic reaction was initiated by the addition of the fluorogenic substrate to a final concentration of 4 µM and a total volume of 100 µL. […] Activated Cat E (0.5 nM) and test compound at various concentrations were added to the assay buffer containing 100 mM sodium acetate at pH 3.5 with 200 mM sodium chloride and 1% DMSO. After a 15-minute pre-incubation, the enzymatic reaction was initiated by the addition of the fluorogenic substrate to a final concentration of 20 µM and a total volume of 100 µL. […]
Enzymatic assay data were analyzed in GraphPad Prism (version 9.3.0) by curve fitting with a four-parameter logistic equation to determine inhibitor half-maximal inhibitory concentration (IC50) values.

[2] = system: HIV-1 Gag (p55) polyprotein cleavage; assay: Gag polyprotein processing immunoblot in transfected HEK293T cells; type: cell-based; details: 2 days post-transfection, anti-p24 immunoblot
[3] = Metabolic stability in human liver microsomes; type: in vitro ADME
[4] = Predicted clearance from rat liver microsome fractions; type: in vitro ADME
[5] = Predicted clearance from dog liver microsome fractions; type: in vitro ADME
[6] = In vivo pharmacokinetics in dog; parameters: species or system Beagle dog
Protocol: Preclinical pharmacokinetic studies were performed in male Sprague–Dawley rats, beagle dogs, and cynomolgus monkeys (three animals per dosing group in each species) following federal and Institutional Animal Care and Use Committee (IACUC) guidelines as described previously ([32]). […] The oral fraction absorbed (F%) was calculated using the formula:
%F=( PO Dose AUC0−inf) x (IV Dose)/(IV Dose AUC0−inf) x (PO Dose)×100%

HIV-1 BaL [7] = assay: p24 production antiviral assay in CD4+ T-lymphocytes; type: cell-based; details: Human immunodeficiency virus 1, T-lymphocyte, HIV-1BaL infected
Excerpt: (§1) Antiviral assays performed in HIV-1BaL infected CD4 +T-lymphocytes and monocyte-derived macrophages (MDMs) have been described previously ([18]). Cell-free supernatants derived from the CD4 +T cell and macrophage cultures were harvested 7- and 12-days post-infection, respectively, and the amount of HIV present was quantified by p24 antigen enzyme-linked immunosorbent assay (ELISA, Perkin Elmer, Waltham, MA) performed according to the manufacturer’s protocol.

HIV-1 BaL [8] = assay: p24 production antiviral assay in monocyte-derived macrophages; type: cell-based; details: Human immunodeficiency virus 1, Macrophage, HIV-1BaL infected
Excerpt: as §1

[9] = Cytotoxicity in A549-hACE2; type: cell-based; details: human, A549-hACE2 cells
Protocol: (§2) Compound cytotoxicity assessment in MT-4 cells, primary CD4+ T lymphocytes, and MDMs was carried out using a protocol identical to the antiviral assay except uninfected cells were used and tested with higher concentration ranges of test compounds. Assessment of cytotoxicity in additional human cell lines (Gal-PC3, Gal-HepG2, HEp-2, Huh-7, MRC-5, HepG2-NTCP, Huh7-Lunet HCV 1b and 2a replicons, NHBE, A549-hACE2) and primary human PBMCs (resting and stimulated with PHA/IL-2) and hepatocytes have been described previously ([19]). For all cytotoxicity assays, the CC50 value for puromycin was determined as a positive internal control and to assess assay sensitivity in each cell type. The effect of tested compounds on cell viability was measured using a CellTiter-Glo readout, performed according to the manufacturer’s recommendations.

Cytotoxicity in Huh-7 = type: cell-based; details: human, Huh-7 cells
Protocol: as §2

[10] = Cytotoxicity in primary human hepatocytes; type: cell-based
Protocol: as §2

[11] = Cytotoxicity in unstimulated PBMCs; type: cell-based; details: human, unstimulated (resting) PBMCs
Protocol: as §2

[12] = system: 20 HIV-1 clinical isolates; assay: Antiviral assay in PBMCs with HIV-1 clinical isolates (RT endpoint); type: cell-based; details: Human immunodeficiency virus 1, PBMC, 168 h, read-out: mean EC50
Protocol: Antiviral assays using fresh human PBMCs independently infected with a panel of clinical HIV-1 and HIV-2 isolates were performed by Southern Research as a contracted research study and assessed 7 days post-infection using reverse transcriptase (RT) endpoint assay. Antiviral assays using HIV-1 reporter viruses containing patient-derived sequences encoding all of PR and a portion of RT (amino acids 1–313) and conferring resistance to FDA-approved HIV PIs were performed by Monogram Biosciences Inc. (South San Francisco, CA) using their previously described Phenosense assay ([25]).

HIV-1IIIb = assay: Two-drug in vitro combination assay in MT-2 cells (MacSynergy II); type: cell-based
Protocol: Anti-HIV-1 assays evaluating the in vitro antiviral effect of two-drug combinations were performed in MT-2 cells as previously described ([26]). Data were normalized to positive and negative controls in each plate and expressed as a percentage of protection from CPE-dependent cell death and analyzed with the MacSynergy II software. Combination data were analyzed at the 99% confidence level, with synergy/antagonism volumes defined as follows: high synergy (>100 µM^2%), moderate synergy (50 to <100 uM^2%), additivity (>−50 to <50 µM^2%), and antagonism (<−50 µM^2%).

[13] = Repeated oral administration in dogs; type: in vivo; details: high doses
RSV = assay: RSV-Fluc reporter antiviral assay; details: human respiratory syncytial virus, NHBE
Protocol: The hepatitis B virus (HBV) surface antigen (HBsAg) antiviral assay was performed as previously described ([28]) using ND-654 as a positive control. The respiratory syncytial virus (RSV) A2 HEp-2 antiviral assay was performed as previously described ([29]) using YM-53403 as a positive control. The severe acute respiratory syndrome coronavirus 2 (SARS-CoV-2) antiviral assay was performed as described previously ([30]) using remdesivir as a positive control.

[14] = system: HBV, HCV, RSV, SARS-CoV-2; assay: Antiviral activity against panel of non-HIV viruses (summary); details: read-out: EC50 range across non-HIV viruses
Protocol: Antiviral assays using appropriate cell lines infected with non-HIV viruses were also performed. […] The hepatitis B virus (HBV) surface antigen (HBsAg) antiviral assay was performed as previously described ([28]) using ND-654 as a positive control. The respiratory syncytial virus (RSV) A2 HEp-2 antiviral assay was performed as previously described ([29]) using YM-53403 as a positive control. The severe acute respiratory syndrome coronavirus 2 (SARS-CoV-2) antiviral assay was performed as described previously ([30]) using remdesivir as a positive control.

Compound: CC(C)(CC1(c2ccc(-c3cnn(C4CC4)n3)cc2)NC(=N)N(C(COC(=O)NC2(C(F)F)CC2)c2ccc(Cl)c(-c3ncnn3C(F)F)c2)C1=O)C(F)(F)F (stereo not shown) [GS-9770]
- Ki ([1]; read-out: Ki(app), lower end of range over six non-HIV proteases): 0.106 µM
- Ki ([1]; read-out: Ki(app), upper end of range over six non-HIV proteases): > 100 µM
- concentration at which Gag polyprotein cleavage and release of mature p24 substantially reduced [2]: 10 nM
- concentration giving complete inhibition of p24 formation [2]: 100 nM
- Eh% (percent predicted hepatic extraction) [3]: 9%
- Predicted CL (predicted human clearance) [3]: 0.11 L/h/kg
- half-life ([3]; read-out: T½ in the presence of human liver microsomes): > 6.58 h
- in vitro predicted blood CL [4]: 0.07 L/h/kg
- in vitro predicted blood CL [5]: 0.72 L/h/kg
- CL ([6]; 1 mg/kg IV, 1 mg/kg): 1.1 ± 0.3 L/h/kg
- tolerability at the doses tested ([6]; 1 mg/kg IV, 4–5 mg/kg PO): well tolerated
- bioavailability ([6]; beagle, plasma, 1 mg/kg IV and 5 mg/kg PO, read-out: F% (oral bioavailability)): 100 ± 20%
- half-life ([6]; beagle, plasma, 1 mg/kg IV and 5 mg/kg PO, read-out: Terminal t1/2 (converted)): 6.7 ± 0.6 h
- Vd ([6]; beagle, plasma, 1 mg/kg IV, read-out: Vss): 5 ± 0.5 L/kg
- clearance ([6]; beagle, plasma, iv, 1 mg/kg, 1 mg/kg IV): 1.13 L/h/kg
- EC50 (HIV-1 BaL [7]): 0.0085 ± 0.0025 µM
- EC50 (HIV-1 BaL [8]): 0.011 ± 0.014 µM
- CC50 [9]: 7.8 ± 2.1 µM
- CC50 (Cytotoxicity in Huh-7): 17 ± 3 µM
- CC50 [10]: 34 ± 16 µM
- CC50 [11]: 9.1 ± 5.5 µM
- EC50 [12]: 0.0073 µM
- Antagonism volume (HIV-1IIIb): −3 ± 3 µM^2.%
- Combination effect (HIV-1IIIb): Additive
- Synergy volume (HIV-1IIIb): 23 ± 14 µM^2.%
- finding after repeated oral administration [13]: bronchoalveolar inflammation observed in the lungs of dogs
- EC50 (RSV): 2.5 ± 0.6 µM
- EC50 [14]: 2.5 to 34 µM
